Measured values: PMC5701749 (Biochemistry, 2017)
“And” between values parts separate entries of the source, which are not always exact repeats. Equal values may be shown once. Read-outs that look alike come from different tables or passages of the source.

How the values were obtained:
[1] = biological target: T1, mouse P-gp mdr1a (Mus musculus, UniProt P21447); settings: DMPC nanodiscs; for V2 (rate of ATP hydrolysis at infinite substrate concentration): footnote a = parameter reaching constraint set at >0; for K1 (substrate concentration for half-maximal stimulation of ATPase activity): footnote d = ambiguous, lack of ATPase stimulation
T1 sequence (P21447 whole entry): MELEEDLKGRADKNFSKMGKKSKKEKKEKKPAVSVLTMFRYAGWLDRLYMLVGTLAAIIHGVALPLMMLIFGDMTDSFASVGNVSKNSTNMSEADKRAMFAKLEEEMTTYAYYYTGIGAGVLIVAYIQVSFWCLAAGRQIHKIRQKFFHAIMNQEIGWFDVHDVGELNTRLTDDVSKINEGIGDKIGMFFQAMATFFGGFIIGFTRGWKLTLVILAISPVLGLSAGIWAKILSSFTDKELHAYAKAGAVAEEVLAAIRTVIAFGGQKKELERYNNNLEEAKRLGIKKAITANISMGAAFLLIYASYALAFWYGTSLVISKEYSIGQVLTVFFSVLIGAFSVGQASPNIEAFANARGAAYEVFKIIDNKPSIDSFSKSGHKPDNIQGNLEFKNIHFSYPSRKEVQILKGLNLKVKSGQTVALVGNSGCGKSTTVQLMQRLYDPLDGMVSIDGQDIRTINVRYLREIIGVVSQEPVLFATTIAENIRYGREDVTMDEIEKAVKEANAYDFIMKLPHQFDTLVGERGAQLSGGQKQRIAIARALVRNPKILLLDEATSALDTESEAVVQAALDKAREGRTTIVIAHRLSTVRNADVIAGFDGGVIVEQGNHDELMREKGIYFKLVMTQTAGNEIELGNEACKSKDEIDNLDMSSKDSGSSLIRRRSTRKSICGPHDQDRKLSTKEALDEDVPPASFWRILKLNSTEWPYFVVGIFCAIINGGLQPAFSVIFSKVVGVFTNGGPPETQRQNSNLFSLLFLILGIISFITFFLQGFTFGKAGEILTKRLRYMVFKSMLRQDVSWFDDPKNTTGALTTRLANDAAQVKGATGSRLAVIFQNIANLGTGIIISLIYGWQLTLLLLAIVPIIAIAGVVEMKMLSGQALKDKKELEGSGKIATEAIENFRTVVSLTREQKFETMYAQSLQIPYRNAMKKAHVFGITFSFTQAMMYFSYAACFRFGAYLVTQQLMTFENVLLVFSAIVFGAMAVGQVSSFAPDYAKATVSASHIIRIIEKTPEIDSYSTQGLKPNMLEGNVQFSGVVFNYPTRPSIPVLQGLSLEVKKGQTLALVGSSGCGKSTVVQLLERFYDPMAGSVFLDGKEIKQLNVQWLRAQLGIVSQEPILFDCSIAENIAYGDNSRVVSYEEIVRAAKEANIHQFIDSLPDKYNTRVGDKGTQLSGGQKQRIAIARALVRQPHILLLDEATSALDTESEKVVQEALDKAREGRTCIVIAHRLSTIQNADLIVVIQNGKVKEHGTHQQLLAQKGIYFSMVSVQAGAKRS

[2] = FCS binding of fluorescent probes to empty nanodiscs; settings: ND = not determined because of minimal binding
[3] = biological target: T1, mouse P-gp mdr1a; settings: E. coli lipid nanodiscs; for V1 (maximal rate of ATP hydrolysis when there is only activation): footnote b = parameter held constant
[4] = biological target: T2, murine P-gp (Mus musculus, UniProt P21447)
T2 sequence (P21447 whole entry): as above

[5] = biological target: T2, murine P-gp; assay type: biochemical; settings: inside-out murine P-gp vesicles, ATP-dependent, 117 nM Flutax-2, 37 °C
[6] = biological target: mouse P-gp (Mus musculus, UniProt P21447); test: ATPase assay in mouse P-gp vesicles; assay type: biochemical; settings: concentration range studied
mouse P-gp, sequence (P21447 whole entry): as above

[7] = biological target: T2, murine P-gp; test: biochemical
[8] = biological target: T2, murine P-gp; settings: for displacement of BD-verapamil from P-gp (in words) / displacement of BD-vinblastine from P-gp (in words): FCS competition; for n (Hill coefficient): drug displacing BD-vinblastine from P-gp nanodiscs
[9] = ATP and Vi (1 mM ATP, 240 μM Vi), vanadate-trapped, apparent KD
[10] = apo (control), nucleotide-free, apparent KD, high-affinity site

Compound	V2 (rate of ATP hydrolysis at infinite substrate concentration) [1]	Kd [2]	V2 (rate of ATP hydrolysis at infinite substrate concentration) [3]	stimulation of ATPase activity (in words) [3]	V1 (maximal rate of ATP hydrolysis when there is only activation) [3]	Kd ([4]; AMP-PNP (1 mM), apparent KD) [nM]	Kd [4, 9] [nM]	Kd [4, 10] [nM]	K1 (substrate concentration for half-maximal stimulation of ATPase activity) [1]	displacement of BD-verapamil from P-gp (in words) [8]	displacement of BD-vinblastine from P-gp (in words) [8]	n (Hill coefficient) [8]	further results
BODIPY vinblastine [BD-vinblastine]	21 ± 4 nmol of Pi min^−1 mg^−1	1700 nM and 1670 nM	156.5 ± 24.8 nmol of Pi min^−1 mg^−1	Neither BD-vinblastine or Flutax-2 stimulated ATPase activity	465 ^b nmol of Pi min^−1 mg^−1	83 ± 12	290 ± 40	42 ± 6	–	–	–	–	stimulation of ATP hydrolysis over basal ATPase activity [1]: ~ 2 fold; increase in KD (decrease in affinity) with AMP-PNP ([4]; AMP-PNP vs nucleotide-free): 1.9 fold and 2 fold; increase in KD (decrease in affinity) in vanadate-trapped state ([4]; ATP and Vi vs nucleotide-free): 6.8 fold
BODIPY FL verapamil [BD-verapamil]	–	–	–	–	–	–	–	–	–	–	–	–	KD [2]: negligible binding
Oregon Green 488 Paclitaxel [Flutax-2]	18 ± 2 nmol of Pi min^−1 mg^−1	3600 nM and 3630 nM	33.2 ± 46.8 nmol of Pi min^−1 mg^−1	no stimulation	500 ^b nmol of Pi min^−1 mg^−1	530 ± 90	490 ± 80	520 ± 90	0.3 ± 0.7 ^d μM	–	–	–	stimulation of ATPase activity (in words) [1]: does not stimulate ATPase activity; initial transport rate [5]: ~42 pmol (mg of total protein)^−1 min^−1; K1 (substrate concentration for half-maximal stimulation of ATPase activity) ([3]; footnote d = ambiguous, lack of ATPase stimulation): 0.2 ± 0.3 ^d μM; Kd ([4]; nucleotide-free, high-affinity interaction): 519 nM; stimulation of ATPase activity (in words) [6]: did not stimulate ATPase activity
CC[C@]1(O)C[C@@H]2CN(CCc3c([nH]c4ccccc34)[C@@](C(=O)OC)(c3cc4c(cc3OC)N(C)[C@H]3[C@@](O)(C(=O)OC)[C@H](OC(C)=O)[C@]5(CC)C=CCN6CC[C@]43[C@@H]65)C2)C1 [vinblastine]	>0 ^a nmol of Pi min^−1 mg^−1	–	–	–	–	–	–	–	2.6 ± 1.0 µM	displaced	displaced	0.4± 0.1	IC50 [7]: 17500 ± 11000 nM
CC(=O)O[C@H]1C(=O)[C@@]2(C)[C@H]([C@H](OC(=O)c3ccccc3)[C@]3(O)C[C@H](OC(=O)[C@H](O)[C@@H](NC(=O)c4ccccc4)c4ccccc4)C(C)=C1C3(C)C)[C@]1(OC(C)=O)CO[C@@H]1C[C@@H]2O [paclitaxel]	48 ± 6 nmol of Pi min^−1 mg^−1	–	–	–	–	–	–	–	1.3 ± 0.5 µM	did not displace	displaced	0.5 ± 0.5	–
